Experimental data as given in patent US8633245B2, “PAI-1 inhibitor” (Institute of Medicinal Molecular Design, Inc., priority 2008, dated 2014).

Molecular target: T1, recombinant human PAI-1 (Homo sapiens, UniProt P05121)
T1 construct: purchased Molecular Innovations, Inc
Assay: Test Example 1: human PAI-1 inhibitory activity (tPA fluorogenic substrate, pH 7.5 Tris buffer)
Format: biochemical
Details: Tris buffer
Experimental: 50 mM Tris, 150 mM NaCl, 10 μg/ml BSA, 0.01% Tween80 (SIGMA-ALDRICH Corporation)

T1 sequence (P05121 24-402): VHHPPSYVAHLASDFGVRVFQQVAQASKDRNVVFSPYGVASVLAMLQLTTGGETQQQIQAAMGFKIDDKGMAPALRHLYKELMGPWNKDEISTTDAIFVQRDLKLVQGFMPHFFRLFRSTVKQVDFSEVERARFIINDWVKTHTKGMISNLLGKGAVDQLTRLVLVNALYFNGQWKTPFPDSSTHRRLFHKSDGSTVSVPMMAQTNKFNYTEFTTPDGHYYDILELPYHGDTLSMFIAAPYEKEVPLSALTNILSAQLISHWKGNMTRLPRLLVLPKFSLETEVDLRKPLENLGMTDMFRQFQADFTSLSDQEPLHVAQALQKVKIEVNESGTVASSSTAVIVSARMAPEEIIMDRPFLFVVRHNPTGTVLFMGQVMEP

| Inhibition Rate of PAI-1 Activity (%) (Compound Concentration 5 μM) | Inhibition Rate of PAI-1 Activity (%) (Compound Concentration 10 μM) | Inhibition Rate of PAI-1 Activity (%) (Compound Concentration 25 μM) | Structure (SMILES) |
| --- | --- | --- | --- |
| 51 | 87 | 94 | CC(C)(C)c1ccc(Oc2cccc(-c3ccc(OC(F)(F)F)cc3)c2C=CC(=O)O)cc1 [Compound 93] |
| 28 | 77 | 96 | CC(C)(C)c1ccc(COc2ccc(Oc3ccc(OC(F)(F)F)cc3)cc2C=CC(=O)O)cc1 [Compound 95] |
| 30 | 40 | 53 | O=C(O)C=Cc1c(Oc2ccc(OC(F)(F)F)cc2)cccc1Oc1ccc(OC(F)(F)F)cc1 [Compound 97] |
| 31 | 66 | 99 | CC(C)(C)c1ccc(Oc2ccc(Oc3ccc(OC(F)(F)F)cc3)cc2C=CC(=O)O)cc1 [Compound 99] |
| 42 | 73 | >99 | O=C(O)CCc1cc(-c2ccc(OC(F)(F)F)cc2)ccc1OCCCc1ccccc1 [Compound 101] |
| 33 | 57 | 89 | O=C(O)CCc1cc(-c2ccc(OC(F)(F)F)cc2)ccc1OCCCOc1ccccc1 [Compound 103] |
| 47 | 77 | 96 | O=C(O)CCc1cc(-c2ccc(OC(F)(F)F)cc2)ccc1OCCCCCc1ccccc1 [Compound 104] |
| 48 | 85 | 97 | CC(C)(C)c1ccc(COc2ccc(-c3ccc(OC(F)(F)F)cc3)cc2COCC(=O)O)cc1 [Compound 107] |
| 24 | 50 | 96 | CC(C)(C)c1ccc(COc2ccc(-c3ccc(OC(F)(F)F)cc3)cc2OCCCC(=O)O)cc1 [Compound 109] |
| 37 | 51 | 83 | CC(C)(Oc1ccc(-c2ccc(OC(F)(F)F)cc2)cc1Oc1ccc(C(C)(C)C)cc1)C(=O)O [Compound 110] |
| 55 | 88 | 94 | CC(C)(OCc1ccc(-c2ccc(OC(F)(F)F)cc2)cc1Oc1ccc(C(C)(C)C)cc1)C(=O)O [Compound 111] |
| 64 | 87 | 95 | CCC(Oc1ccc(-c2ccc(OC(F)(F)F)cc2)cc1Oc1ccc(C(C)(C)C)cc1)C(=O)O (centres unmarked) [Compound 114] |
| 34 | 59 | 90 | O=C(O)COc1cc(-c2ccc(OC(F)(F)F)cc2)ccc1OCCCCc1ccccc1 [Compound 115] |
| 75 | 93 | 99 | CC(C)(C)c1ccc(Oc2cc(-c3ccc(OC(F)(F)F)cc3)ccc2OC(F)C(=O)O)cc1 (centres unmarked) [Compound 119] |
| 59 | 87 | 98 | CC(C)(C)c1ccc(Oc2cc(-c3ccc(OC(F)(F)F)cc3)ccc2OC(F)(F)C(=O)O)cc1 [Compound 120] |
| 29 | 63 | 99 | CC(C)(C)c1ccc(COc2ccc(-c3ccc(OC(F)(F)F)cc3)cc2OCc2nnn[nH]2)cc1 [Compound 122] |
| 27 | 62 |  | Cc1cc(C)cc(CN(C(=O)C(=O)O)c2ccc(-c3ccc(OC(F)(F)F)cc3)cc2)c1 [Compound 123] |

| Inhibition Rate of PAI-1 Activity (%) (Compound Concentration 5 μM) | Inhibition Rate of PAI-1 Activity (%) (Compound Concentration 10 μM) | Inhibition Rate of PAI-1 Activity (%) (Compound Concentration 25 μM) | Structure (SMILES) |
| --- | --- | --- | --- |
| 22 | 49 |  | O=C(O)C(=O)N(Cc1ccc(Cl)cc1)c1ccc(-c2ccc(OC(F)(F)F)cc2)cc1 [Compound 124] |
| 15 | 31 |  | Cc1cccc(CN(C(=O)C(=O)O)c2ccc(-c3ccc(OC(F)(F)F)cc3)cc2)c1 [Compound 125] |
| 16 | 43 |  | COc1ccc(-c2ccc(N(Cc3ccc(C(C)(C)C)cc3)C(=O)C(=O)O)cc2)cc1 [Compound 126] |
| 21 | 43 |  | CC(C)(C)c1ccc(CN(C(=O)C(=O)O)c2ccc(-c3ccc(F)cc3)cc2)cc1 [Compound 127] |
| 58 | 89 |  | CC(C)(C)c1ccc(N(C(=O)C(=O)O)c2ccc(-c3ccc(OC(F)(F)F)cc3)cc2)cc1 [Compound 128] |
|  | 10 | 34 | COc1ccc(CN(C(=O)C(=O)O)c2ccc(-c3ccc(OC(F)(F)F)cc3)cc2)cc1 [Compound 131] |
|  | 32 | 82 | CC(C)(C)c1ccc(CN(C(=O)C(=O)O)c2ccc(Oc3ccc(OC(F)(F)F)cc3)cc2)cc1 [Compound 132] |
|  | 14 | 75 | CSc1ccc(-c2ccc(N(Cc3ccc(C(C)(C)C)cc3)C(=O)C(=O)O)cc2)cc1 [Compound 134] |
|  | 6 | 67 | CC(C)(C)c1ccc(CN(C(=O)C(=O)O)c2ccc(-c3ccc(Cl)cc3)cc2)cc1 [Compound 135] |
| 16 | 47 | 79 | Cc1ccc(-c2ccc(OC(F)(F)F)cc2)cc1N(Cc1ccc(C(C)(C)C)cc1)C(=O)C(=O)O [Compound 136] |
|  | 5 | 61 | Cc1ccc(-c2ccccc2)cc1N(Cc1ccc(C(C)(C)C)cc1)C(=O)C(=O)O [Compound 137] |
|  | 4 | 61 | Cc1ccc(-c2cccc([N+](=O)[O-])c2)cc1N(Cc1ccc(C(C)(C)C)cc1)C(=O)C(=O)O [Compound 138] |
| 6 | 31 | 77 | CC(C)(C)c1ccc(CN(C(=O)C(=O)O)c2cc(-c3ccccc3)cc(C(F)(F)F)c2)cc1 [Compound 140] |
|  | 5 | 52 | Cc1ccc(-c2ccc(N(Cc3ccc(C(C)(C)C)cc3)C(=O)C(=O)O)cc2)cc1 [Compound 141] |
|  | 3 | 33 | CC(C)(C)c1ccc(CN(C(=O)C(=O)O)c2ccc(-c3cccc([N+](=O)[O-])c3)cc2)cc1 [Compound 142] |
|  | 1 | 22 | Cc1ccc(CN(C(=O)C(=O)O)c2ccc(-c3ccc(OC(F)(F)F)cc3)cc2)cc1 [Compound 143] |

| Structure (SMILES) | Inhibition Rate of PAI-1 Activity (%) (Compound Concentration 5 μM) | Inhibition Rate of PAI-1 Activity (%) (Compound Concentration 10 μM) | Inhibition Rate of PAI-1 Activity (%) (Compound Concentration 25 μM) |
| --- | --- | --- | --- |
| CC(C)(C)c1ccc(CN(C(=O)C(=O)O)c2ccc(-c3ccc(OC(F)(F)F)cc3)cc2)cc1 [Compound 133] | 80 | 92 |  |
